The numbers were not newly measured in patent US11761043B2, “Machine assay and analysis for selecting antihypertensive drugs” (Geneticure Inc., priority 2014, dated 2023), which cites them from elsewhere.

The subject of series [1] is CYP2D6. As to conditions: individuals homozygous for adenine (AA) at rs3892097 vs subjects not homozygous AA.
Series [2] concerns the target CYP2D6 (Homo sapiens, UniProt P10635). As to conditions: in vivo.
A further series deals with renin. The following applies: cytosine (guanine) variant of renin rs12750834.

Chain of CYP2D6 (Homo sapiens, UniProt P10635) (P10635 whole entry): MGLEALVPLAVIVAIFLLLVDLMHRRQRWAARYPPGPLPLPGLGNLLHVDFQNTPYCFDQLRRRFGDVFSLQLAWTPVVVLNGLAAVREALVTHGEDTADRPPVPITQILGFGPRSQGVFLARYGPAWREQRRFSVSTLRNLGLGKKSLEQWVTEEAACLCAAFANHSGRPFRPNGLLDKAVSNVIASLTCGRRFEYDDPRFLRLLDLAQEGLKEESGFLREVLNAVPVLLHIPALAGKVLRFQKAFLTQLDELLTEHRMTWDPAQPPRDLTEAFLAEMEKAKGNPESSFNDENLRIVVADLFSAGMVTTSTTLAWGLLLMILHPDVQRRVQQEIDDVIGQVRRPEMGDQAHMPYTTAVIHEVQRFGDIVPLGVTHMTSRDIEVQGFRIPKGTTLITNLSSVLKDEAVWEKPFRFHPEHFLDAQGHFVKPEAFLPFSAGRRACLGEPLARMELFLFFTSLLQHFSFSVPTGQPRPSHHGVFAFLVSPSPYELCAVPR

Regarding `CC(C)NCC(O)COc1cccc2ccccc12` (stereo not shown) [propranolol], the “plasma levels after taking these drugs” value with CYP2D6 [1] was “higher plasma levels”. As for `COCCc1ccc(OCC(O)CNC(C)C)cc1` (stereo not shown) [metoprolol], the “plasma levels after taking these drugs” value in the series with CYP2D6 [1] is listed as “higher plasma levels”. As to `COc1ccccc1OCCNCC(O)COc1cccc2[nH]c3ccccc3c12` (stereo not shown) [carvedilol], the “requirement of CYP2D6 for metabolism” value on CYP2D6 [2] is “do not require CYP2D6 for their metabolism”.

Regarding `CCCCC(=O)N(Cc1ccc(-c2ccccc2-c2nnn[nH]2)cc1)[C@H](C(=O)O)C(C)C` [valsartan], the “reduction in blood pressure upon administration” value in the series on renin is recorded as “greater reduction in blood pressure”.
